Reference: patent US9279105B2, “Enrichment of stem cells from adult tissues” (Board of Supervisors of Louisiana State University And …, priority 2009, dated 2016)

Legend:
Assay type in all cases: cell-based, rat
[1] = system: dental follicle cells (DFCs; non-stem cells); assay: 4-HC treatment of dental follicle cells (non-stem cells); settings: same 4-HC treatment protocol applied to DFCs
DFSCs [2] = assay: Proliferation of cells surviving 4-HC treatment (flow cytometry analysis)
[3] = system: Abcb1, Prom1, Notch 1, and CD34; assay: Stem cell marker expression in 4-HC surviving cells by RT-PCR and western blotting; settings: 4-HC surviving cells compared to the original population; on the average
Experimental: We also tested an ALDH substrate, 4-hydroperoxycyclophosphamide (4-HC), for elimination of non-stem cells in culture. DFSCs were cultured as described above and then treated with 4-HC at the concentrations of 5, 10, 15, 20 and 25 μM in α-MEM medium containing 20% FBS for 48 hours at 37° C. The majority of the cells were killed at a 4-HC concentration greater than 15 μM. The surviving cells then were collected and subjected to cell proliferation, differentiation, and gene expression assays as described above for evaluation of stem cell properties. Putative stem cells surviving from a 4-HC treatment expressed a high level of multiple stem cell markers, including Abcb1, Prom1, Notch 1, and CD34, as determined by RT-PCR and western blotting. On the average, about a 2 to 4-fold increase in expression of these markers was detected in the 4-HC surviving cells as compared to the original population.

DFSCs [4] = assay: 4-HC treatment of DFSCs for elimination of non-stem cells; settings: 5-25 μM tested, 48 hours at 37° C., α-MEM with 20% FBS
Experimental: (§1) Establishment of cell cultures from rat dental follicle: Dental follicles (DF) were surgically removed from the first mandibular molars of Sprague Dawley rat pups at days 5-7 postnatally, and the isolated DF cells then suspended in MEM medium containing 10% newborn calf serum (NCS), 1 mM sodium pyruvate and antibiotics as previously described (Wise et al., 1992). Next, 5 ml of the cell suspension was transferred into a T-25 cell culture flask and incubated overnight to allow the cells to adhere. […]
We also tested an ALDH substrate, 4-hydroperoxycyclophosphamide (4-HC), for elimination of non-stem cells in culture. […] Putative stem cells surviving from a 4-HC treatment expressed a high level of multiple stem cell markers, including Abcb1, Prom1, Notch 1, and CD34, as determined by RT-PCR and western blotting. On the average, about a 2 to 4-fold increase in expression of these markers was detected in the 4-HC surviving cells as compared to the original population.

DFSCs [5] = assay: Doxorubicin treatment of DFSCs, count of viable cells (survival rate); settings: DOX 1 μM, incubation increased from 2 to 4 to 6 hours, compared to control without DOX; FIG. 2
Experimental: as §1
(§2) In another experiment to determine to enrich the populations of stem cells, DFSCs were treated with doxorubicin (DOX), a substrate of BCRP, at concentrations of 0.5, 1 or 2 μM for 1, 2, 4 and 6 hrs. […] The number of viable cells was counted in 5 to 10 randomly selected spots (1 mm^2 each) for calculation of the survival rate as the ratio of treatment/control. […]

DFSCs [6] = assay: Adipogenesis differentiation of cells surviving DOX, Oil Red O staining; settings: cells that survived DOX for 4 hours; untreated control DFSCs formed only a few adipocytes
Experimental: To determine the differentiation capabilities of the putative stem cells, DFSCs were subjected to various differentiation procedures. For osteogenesis, cells were cultured for 2 weeks in medium consisting of DMEM-LG, 10% FBS, 50 μg/ml ascorbate-2 phosphate, 10^−8 M dexamethasone, and 10 mM β-glycerophosphate […] as previously described, followed by von Kossa and Alizarin Red staining to assess for mineral deposition (as described in Hung et al., 2002). For adipogenesis, DFSCs were cultured for 2 weeks in medium consisting of DMEM-LG, 10% FBS (Invitrogen Corporation, Carlsbad, Calif., USA), 50 μg/ml ascorbate-2 phosphate (Sigma-Aldrich), 10^−7 M dexamethasone, and 50 μg/ml indomethacin, with a medium change every 3 days (Hung et al., 2002). The cells then were stained with Oil red O to evaluate adipogenesis.
as §2, with “hrs. The cells were incubated at 37° C. for the designated duration.” for “hrs.”

| SMILES | survival of cells [1] | proliferation rate of putative stem cells surviving 4-HC (DFSCs [2]; flow cytometry, compared to original cell population not subjected to 4-HC) | effect of 4-HC treatment on proliferation of the cells (DFSCs [2]; surviving cells) | increase in expression of stem cell markers [3] [fold] | 4-HC concentration at which the majority of the cells were killed (DFSCs [4]) | number of surviving cells (DFSCs [5]) | adipocyte formation of surviving cells in adipogenesis induction medium (DFSCs [6]) |
| --- | --- | --- | --- | --- | --- | --- | --- |
| O=P1(N(CCCl)CCCl)NC(OO)CCO1 (stereo not shown) [4-HC, 4-hydroperoxycyclophosphamide] | none of them survived | higher proliferation rate | did not adversely affect | 2 to 4 | greater than 15 μM |  |  |
| COc1cccc2c1C(=O)c1c(O)c3c(c(O)c1C2=O)C[C@@](O)(C(=O)CO)C[C@@H]3O[C@H]1C[C@H](N)[C@H](O)[C@H](C)O1 [DOX, doxorubicin] |  |  |  |  |  | decreasing | majority of the cells forming Oil Red O positive adipocytes |
